Measurements: article PMC3694297, “Establishment of a simplified in vitro porcine blood–brain barrier model with high transendothelial electrical resistance” (Brain Research, 2013)

What was measured:
[1] = test system: porcine brain endothelial cells (PBECs); conditions: apical to basal, P.1 PBEC; line through passive compounds R^2=0.96
Procedure: Permeability assays were performed on cell monolayers with TEER >500 Ω cm^2. […] At t=5 min, the inserts were transferred to the next well containing donor buffer. This procedure was repeated for all inserts at t=15 min and t=30 min. At the end of the experiment, samples were taken from each insert and well to scintillation vials. OptiPhase HiSafe 2 scintillation liquid was added to each vial and radioactivity was counted using a Canberra Packard Tricarb 1900 TR Liquid Scintillation Analyser.
Cleared volume was calculated using the following equation and plotted as a function of time:(1) Clearedvolume(μl)=MR(dpm)/CD(dpm/μl) where is the MR=amount of radio-labelled compound in the receiver compartment, dpm=disintegrations per minute, CD=concentration of the compound in the donor compartment.
All dpm values were corrected for background dpm. The slope of the clearance curve was obtained by linear regression and represents the PS (i.e. permeability × surface area) product. Apparent permeability (Papp, cm/s) was calculated using the following equation:(2) Papp(cm/s)=PSproduct(cm^3/s)/surfaceareaoftheinsert(cm^2)
The apparent permeability Papp was calculated according to Eq. (2) and plotted against the calculated Log Poctanol as a measure of lipophilicity of the compound.

[2] = test system: cEND (an immortalised mouse brain endothelial cell line); design: method as in Förster et al. (2005); conditions: cEND cells treated with hydrocortisone; ref Förster et al. (2005); cited from earlier work
[3] = test system: hCMEC/D3, immortalised human brain microvascular endothelial cells; design: method as in Förster et al., 2008; conditions: hCMEC/D3 treated with hydrocortisone; ref Förster et al., 2008; cited from earlier work

| Papp relative to the line of Papp vs. calculated Log Poctanol [1] | SMILES | other results |
| --- | --- | --- |
| clear outliers above the line | CC(C)C[C@H](N)C(=O)O [Leucine, L-leucine] |  |
| clear outliers above the line | Cn1c(=O)c2c(ncn2C)n(C)c1=O [caffeine] |  |
| clear outliers below the line | N[C@@H](CCC(=O)O)C(=O)O [glutamate, L-glutamic acid] |  |
|  | C[C@]12CCC(=O)C=C1CC[C@@H]1[C@@H]2[C@@H](O)C[C@@]2(C)[C@H]1CC[C@]2(O)C(=O)CO [hydrocortisone] | increase in TEER [2]: threefold; increase in TEER [3]: three-fold; increase in expression of occludin and claudin-5 [3]: over twofold |
| clear outliers below the line | CC[C@]1(O)C[C@@H]2CN(CCc3c([nH]c4ccccc34)[C@@](C(=O)OC)(c3cc4c(cc3OC)N(C)[C@H]3[C@@](O)(C(=O)OC)[C@H](OC(C)=O)[C@]5(CC)C=CCN6CC[C@]43[C@@H]65)C2)C1 [vinblastine] |  |

| SMILES | Papp relative to the line of Papp vs. calculated Log Poctanol [1] | other results |
| --- | --- | --- |
| C=CCN1CC[C@]23c4c5ccc(O)c4O[C@H]2C(=O)CC[C@@]3(O)[C@H]1C5 [naloxone] | linear function of calculated Log Poctanol |  |
| CC(C)NCC(O)COc1cccc2ccccc12 (stereo not drawn) [propranolol] | linear function of calculated Log Poctanol |  |
